Results published in ChEMBL document CHEMBL3734663, “Solid-phase synthesis and in vitro biological activity of a Thr4→Ser4 analog of daptomycin” (2015).

Key:
Format in all cases: functional
[1] = tested on: Bacillus subtilis; assay: Antibacterial activity against Bacillus subtilis 1046 in presence of 5 mM Ca2+
[2] = tested on: Bacillus subtilis; assay: Antibacterial activity against Bacillus subtilis 1046 in presence of 100 mM Ca2+
[3] = tested on: Bacillus subtilis; assay: Antibacterial activity against Bacillus subtilis 1046 in presence of 1.8 mM Ca2+

SMILES	MIC [1] [µg/mL]	MIC [2] [µg/mL]	MIC [3] [µg/mL]
CCCCCCCCCC(=O)N[C@@H](Cc1c[nH]c2ccccc12)C(=O)NC(CC(N)=O)C(=O)N[C@@H](CC(=O)O)C(=O)N[C@@H]1C(=O)NCC(=O)N[C@@H](CCCN)C(=O)N[C@@H](CC(=O)O)C(=O)N[C@H](C)C(=O)N[C@@H](CC(=O)O)C(=O)NCC(=O)N[C@H](CO)C(=O)N[C@@H](C(C)CC(=O)O)C(=O)N[C@@H](CC(=O)c2ccccc2N)C(=O)O[C@@H]1C (single isomer, unassigned) [DAPTOMYCIN]	5	5	40
CCCCCCCCCC(=O)N[C@@H](Cc1c[nH]c2ccccc12)C(=O)N[C@H](CC(N)=O)C(=O)N[C@@H](CC(=O)O)C(=O)N[C@@H]1C(=O)NCC(=O)N[C@@H](CCCN)C(=O)N[C@@H](CC(=O)O)C(=O)N[C@H](C)C(=O)N[C@@H](CC(=O)O)C(=O)NCC(=O)N[C@H](CO)C(=O)N[C@@H]([C@H](C)CC(=O)O)C(=O)N[C@@H](CC(=O)c2ccccc2N)C(=O)O[C@@H]1C	0.75	0.5	1

Continued, in another order:

MIC [1] [µg/mL]	MIC [2] [µg/mL]	SMILES	MIC [3] [µg/mL]
1.5	1.5	CCCCCCCCCC(=O)N[C@@H](Cc1c[nH]c2ccccc12)C(=O)N[C@@H](CC(N)=O)C(=O)N[C@@H](CC(=O)O)C(=O)N[C@H]1COC(=O)[C@H](Cc2c[nH]c3ccccc23)NC(=O)[C@H](CCC(=O)O)NC(=O)[C@@H](CO)NC(=O)CNC(=O)[C@H](CC(=O)O)NC(=O)[C@@H](C)NC(=O)[C@H](CC(=O)O)NC(=O)[C@H](CCCN)NC(=O)CNC1=O	5
> 100	> 100	CCCCCCCCCC(=O)N[C@@H](Cc1c[nH]c2ccccc12)C(=O)N[C@@H](CC(N)=O)C(=O)N[C@@H](CC(=O)O)C(=O)N[C@H]1COC(=O)[C@H](Cc2c[nH]c3ccccc23)NC(=O)[C@H](CCC(=O)O)NC(=O)[C@@H](CO)NC(=O)CNC(=O)[C@H](CC(=O)O)NC(=O)[C@@H](C)NC(=O)[C@H](C)NC(=O)[C@H](CCCN)NC(=O)CNC1=O	> 100
35	1.3	CCCCCCCCCC(=O)N[C@@H](Cc1c[nH]c2ccccc12)C(=O)N[C@@H](CC(N)=O)C(=O)N[C@@H](CC(=O)O)C(=O)N[C@H]1COC(=O)[C@H](Cc2ccc(O)cc2)NC(=O)[C@H](CCC(=O)O)NC(=O)[C@@H](CO)NC(=O)CNC(=O)[C@H](CC(=O)O)NC(=O)[C@@H](C)NC(=O)[C@H](CC(=O)O)NC(=O)[C@H](CCCN)NC(=O)CNC1=O	
